The subject of one assay is vanA VRE 700221. The assay can be described thus: MIC against vanA VRE 700221. In kind it is cell-based, Enterococcus spp. The settings on record: Enterococcus.
Another assay has as its system vanB VRE 51299. The assay is described as follows: MIC against vanB VRE 51299. In kind it is cell-based, Enterococcus spp. The settings on record: Enterococcus.
The next assay deals with vanC-1 VRE 49608. The assay can be described thus: MIC against vanC-1 VRE 49608. In kind it is cell-based, Enterococcus spp. The settings on record: Enterococcus.
In the next assay the test system is VSE 2127. The assay is described as follows: MIC against VSE 2127. In kind it is cell-based, Enterococcus spp.
For a further assay, the system named is S. aureus VRS-2. The assay can be described thus: VRSA thigh infection model in neutropenic mice. The class given is in vivo, mouse. The note with it: 100 mg/kg IP BID q12h; for bacterial count reduction in thigh tissue relative to the vehicle control group: 26 h post-infection, p<0.05. As for the experimental part: (§1) FIG. 8 is a plot comparing the efficacy of linezolid, Compound 4 (AV-0273), and Compound 8 (AV-0267) in the S. aureus VRS-2 thigh infection model, CFU/g thigh. Test animals were rendered neutropenic with cyclophosphamide administration, 150 mg/kg on Day −4 then 100 mg/kg on Day −1 prior to infection on Day 0. On Day 0, animals were intramuscularly inoculated with 8.4×10^4 CFU/mouse (0.1 mL/animal) of the S. aureus VRS-2 strain. The vehicle and the test articles, Compound 4 (AV-0273) and Compound 8 (AV-0267), both at 100 mg/kg, were each intraperitoneally (IP) administered twice with a 12 h interval (BID q12h) at 2 and 14 h after infection. The reference standard, linezolid at 50 mg/kg, was orally (PO) administered BID q12 h starting at 2 h post-infection. Animals were sacrificed at 2 or 26 h post-infection, and the thigh tissues were harvested and weighed from each of the test animals. The bacterial counts (CFU/g thigh) of thigh tissue homogenates were measured.
as §1, with “FIG. 9” for “FIG. 8”, “of linezolid” for “of linezolid,”, “CFU/g thigh, change in bacterial counts relative to baseline count at 26h post-infection. Data represent the change in bacterial counts in thigh tissue following test article treatment relative to the initial 2 h CFU/g thigh or CFU/thigh at the time of dosing (baseline counts).” for “CFU/g thigh.”, “(BID q12 h)” for “(BID q12h)”, “(CFU/g thigh and CFU/thigh)” for “(CFU/g thigh)”, “were compared.” for “were measured.”
Example vancomycin-2,3-pyrrolidinediones conjugates were evaluated using an in vivo tissue infection model with vancomycin resistant MRSA:
Animal model: Murine thigh infection
Bacteria: VRSA (VRS-2). Gram Positive, Staphylococcus aureus (VRSA, VRS-2), Mouse Infected Thigh Model. VRS-2 is VanA producing SCC Mec II st5 train.
Vancomycin conjugates dose: 100 mg/Kg intraperitoneally (IP).
Application: This model assesses the antimicrobial efficacy of test articles in a tissue infection model with vancomycin resistant MRSA. Microbial counts are measured. […]

The test system of another assay is S. aureus (strain HG003). The assay is described as follows: Time-dependent killing of S. aureus (strain HG003). In kind it is cell-based, Staphylococcus aureus. The settings on record: S. aureus strain HG003, liquid culture, single inoculation, FIG. 2. The text has this: FIG. 2 is a plot showing the time-dependent killing of S. aureus (strain HG003) by vancomycin and an example vancomycin-2-3-pyrrolidinedione conjugate (Compound 4).
(§2) With these initial results in hand, the time-dependent killing of bacterial strains by the vancomycin-2-3-pyrrolidinedione conjugates was investigated. FIG. 2 is a plot showing the time-dependent killing of S. aureus (strain HG003) by vancomycin and an example vancomycin-2-3-pyrrolidinedione conjugate (Compound 4, also referred to as AV-273). FIG. 3 is a plot showing the time-dependent killing of MRSA (strain LAC) by vancomycin and an example vancomycin-2-3-pyrrolidinedione conjugate (Compound 4).

Another assay relates to MRSA (strain LAC). The assay is described as follows: Time-dependent killing of MRSA (strain LAC). In kind it is cell-based, Staphylococcus aureus. The note with it: liquid culture, single inoculation, FIG. 3.
Text: FIG. 3 is a plot showing the time-dependent killing of MRSA (strain LAC) by vancomycin and an example vancomycin-2-3-pyrrolidinedione conjugate (Compound 4).
as §2

In the next assay the test system is VRSA. The note with it: S. aureus VRS-2; cited from earlier work.

Converted amounts (≈) assume the structure as drawn. Where two headings read alike, the source gives them in different places. Bounds are passed on as bounds.

`CCC1C(c2ccc(C(F)(F)F)cc2)=C(O)C(=O)N1C1CCC(NC)CC1` (stereo not drawn) [Compound 4]: the MIC with vanA VRE 700221 (VRE, the 2nd table, read-out: MIC (vanA VRE 700221)) was found to be 8 µg/mL (≈ 20.9 µM); in the assay on vanA VRE 700221 (vanA VRE 700221, the 3rd table, read-out: MIC), 8 µg/mL (≈ 20.9 µM); in the assay with vanB VRE 51299 (VRE, the 2nd table, read-out: MIC (vanB VRE 51299)), 2 µg/mL (≈ 5.23 µM); with vanB VRE 51299 (vanB VRE 51299, the 3rd table, read-out: MIC), 2 µg/mL (≈ 5.23 µM); in the assay on vanC-1 VRE 49608 (VRE, the 2nd table, read-out: MIC (vanC-1 VRE 49608)) it was 0.5 µg/mL (≈ 1.31 µM); in the assay on vanC-1 VRE 49608 (vanC-1 VRE 49608, the 3rd table, read-out: MIC), 0.5 µg/mL (≈ 1.31 µM). In addition, the MIC with VSE 2127 (Enterococcus; read-out: MIC (VSE 2127)) was found to be 0.5 µg/mL (≈ 1.31 µM). For the same molecule, in the assay on S. aureus VRS-2, the “bacterial count reduction in thigh tissue relative to the vehicle control group” value amounted to 100%. Moreover, in the assay on S. aureus VRS-2 (FIG. 9), the “effect relative to the baseline control” value was “bacteriostatic effect”. Also, the time-dependent killing profile result in the assay on S. aureus (strain HG003) and in the assay with MRSA (strain LAC) was “roughly matched vancomycin at the same concentration” each time.
As to `CCC1C(c2ccc(C(F)(F)F)cc2)=C(O)C(=O)N1CCCNCCCCNC` (stereo not drawn) [Compound 8], the “bacterial count reduction in thigh tissue relative to the vehicle control group” value in the assay with S. aureus VRS-2 is given as 100%.
Take `CN[C@H](CC(C)C)C(=O)N[C@H]1C(=O)N[C@@H](CC(N)=O)C(=O)N[C@H]2C(=O)N[C@H]3C(=O)N[C@H](C(=O)N[C@H](C(=O)O)c4cc(O)cc(O)c4-c4cc3ccc4O)[C@H](O)c3ccc(c(Cl)c3)Oc3cc2cc(c3O[C@@H]2O[C@H](CO)[C@@H](O)[C@H](O)[C@H]2O[C@H]2C[C@](C)(N)[C@H](O)[C@H](C)O2)Oc2ccc(cc2Cl)[C@H]1O` [Vancomycin, vancomycin, reference compound]: the MIC in the assay with vanA VRE 700221 (VRE) was found to be 512 µg/mL (≈ 353 µM); with vanA VRE 700221 (VRE, read-out: MIC (vanA VRE 700221)), 512 µg/mL (≈ 353 µM); in the assay on vanB VRE 51299 (VRE) it was 256 µg/mL (≈ 177 µM); with vanB VRE 51299 (VRE, read-out: MIC (vanB VRE 51299)) it was 256 µg/mL (≈ 177 µM); in the assay on vanC-1 VRE 49608 (VRE) it was 32 µg/mL (≈ 22.1 µM); in the assay with vanC-1 VRE 49608 (VRE, read-out: MIC (vanC-1 VRE 49608)), 32 µg/mL (≈ 22.1 µM). In addition, the minimal inhibitory concentration (MIC) with VSE 2127 (Enterococcus, read-out: MIC (VSE 2127)) amounted to 2 µg/mL (≈ 1.38 µM). Further, the MIC of vancomycin for VRS-2 (strain description) in the assay with VRSA was over 64 µg/mL. Moreover, the “antibiotic resistance profile of VRS-2: vancomycin” value in the assay with VRSA was over 64 µg/mL.

Source of the values: patent publication US20250312258A1, “2,3-PYRROLIDINEDIONE CONJUGATES AND METHODS OF USING THEREOF” (North Carolina State University, priority 2022, published 2025).
